{"source": "patent US20020115117A1", "about": "“ERbeta-mediated gene expression” (priority 2000, published 2002)", "key": {"PC-3 M cells": {"system": "PC-3 M cells", "assay": "Cell growth inhibition by Raloxifene and Resveratrol, PC-3 M", "assay_type": "cell-based, human", "source_text": "(§1) Raloxifene® and Resveratrol® may also be active tumor suppressing agents utilizing the ERβ pathways. […] Treatment protocols and dosages used were similar to those described above."}, "DU145": {"system": "DU145", "assay": "Cell growth inhibition by Raloxifene and Resveratrol, DU145", "assay_type": "cell-based, human", "source_text": "as §1"}, "DU145 cells [1]": {"system": "DU145 cells", "assay": "Cell growth of DU145 cells, trypan blue exclusion count", "assay_type": "cell-based, human", "conditions": "for reduction in the cell numbers: 1 μM, 4 days, vs vehicle (absolute ethanol) control; for effect on cell growth: 4-day exposure, vs vehicle control", "description": "FIGS. 2A-2D are graphs summarizing data on effects of antiestrogens and estrogens on cell growth of DU145 cells. Cells (5×10^3 cells per well) were plated in triplicate wells onto a 24-well plate. After 24 hours for cell attachment, cells were treated for 4 days with antiestrogens [(A) ICI and (B) 4OH-TAM] or estrogens [(C) 17β-estradiol and (D) DES] at various concentrations as indicated. Cells treated with vehicle (absolute ethanol) were used as control. The number of viable cells at the end of 4 days of treatment was determined by the trypan blue exclusion method. Three individual experiments were performed. (Columns, means; bars, S.D.; n=9; *, p<0.001 compared to control (shaded column).\n(§2) Cells were seeded at a density of 5×10^3 per ml into 24-well plates (Falcon, Becton Dickinson Labware, Lincoln Park, N.J.) in a final volume of 1 ml culture medium with 5% charcoal-stripped FBS. Twenty-four hours following seeding, triplicate wells of cells were treated in with 1 μM, 10 μM and 100 μM of estradiol-17β (E2), diethylstilbestrol (DES), 4′-hydroxytamoxifen (4OH-TAM) or ICI 182,780 (ICI). E2, DES, and 4OH-TAM were purchased from Sigma Co. (St. Louis, Mo.) and ICI was a gift from Zeneca Pharmaceuticals (Macclesfield, United Kingdom). Estrogens and antiestrogens were dissolved in absolute ethanol (Sigma Co., St. Louis, Mo.) and added to the media daily. Cell cultures not treated with estrogenic compounds received absolute ethanol as a vehicle control. Total additive ethanol concentrations never exceeded 0.2% throughout the culture period. The cells were re-fed with freshly prepared medium every other day. At the end of a 4-day treatment period, cells in each well were trypsinized and cell count determined by direct counting using the Trypan blue exclusion method. All treatment experiments were repeated at least three times to generate statistically relevant data."}, "PC-3 cells": {"system": "PC-3 cells", "assay": "Cell growth of PC-3 cells, trypan blue exclusion count", "assay_type": "cell-based, human", "description": "FIGS. 3A-3D are graphs summarizing data on effects of antiestrogens and estrogens on cell growth of PC-3 cells. Cell growth assay was described in […]. (A) ICI. (B) 4OH-TAM. (C) 17β-estradiol. (D) DES. Columns, means; bars, S.D.; n=9; * ,p<0.001; #, p<0.01; +, p<0.05; compared to control (shaded column).\nas §2"}, "DU145 cells [2]": {"system": "DU145 cells", "assay": "cDNA expression array of DU145 cells treated with ICI 182,780", "assay_type": "cell-based, human", "conditions": "DU145, 12 hours", "description": "cDNA array technology was used to identify genes whose expression is modulated by ICI 182,780 in DU145 cells. The DU-145 cells were treated for 12 hours with ICI 182,780, and total RNA was then isolated from treated cells and untreated controls. Following poly-(A)-RNA selection of these two population of total RNA, and DNase I digestion to remove contaminating DNA, the poly (A)-RNA pools were reversed-transcribed in the presence of P32 to produce radiolabeled cDNA probes. These radiolabeled cDNA probes were applied to an Atlas™ cDNA Expression Array (600 gene array, Clontech Laboratories, Inc, Palo Alto, Calif.) using the vendor's recommended protocol."}, "DU145 cells [3]": {"system": "DU145 cells", "assay": "ICI-induced DU145 cell growth inhibition with ERβ antisense, sense or mismatch ODN", "assay_type": "cell-based, human", "conditions": "ICI 1 μM, 4 days, no ODN", "description": "FIG. 4 is a graph summarizing data on reduction of ICI-induced inhibition of DU145 cell growth by ERβ antisense oligonucleotide (ODN). Cells were treated with ICI at 10^−6 M for 4 days in the presence of 2.5 μM antisense, sense or mismatch ODNs. Columns, means; bars, S.D.; n=16; *,p<0.001 compared to control without ODN treatment.\nDU145 cells (5×10^3 cells per well) were plated in 24 well-plates (Falcon, Becton Dickinson Labware, Lincoln Park, N.J.). After allowing 24 hours for cell attachment, cell cultures were treated in triplicate with 1 μM ICI in the presence of 2.5 μM ERβ antisense, sense or mismatch ODNs for 4 days. The ERβ antisense ODN, an 18-mer, was designed to recognize the first translation start site on the ERβ mRNA and its immediate 5′flanking region (Table 2, below). The nucleotide sequence of sense ODN is complementary to those of ERβ antisense ODN (Table 2). Based on the sequence of ERβ antisense ODN, 5 nucleotides were scrambled to generate a mismatch ODN that retains the same GC ratio of the ERβ antisense ODN (Table 2). Both the sense and the mismatch ODNs served as controls for the antisense ODN. In all three ODNs, the first and the last 3 nucleotides were phosphorothioate-modified to increase their stability in cellulo. Number of viable cells in each well was determined by direct counting using the Trypan blue exclusion method after a 4-day treatment period. […]"}, "ERβ": {"system": "ERβ", "assay": "Competitive immunohistochemistry with GC-17 antibody", "assay_type": "cell-based, human", "conditions": "sections of DU145 and LNCaP cells, 400 μg/ml or 40 μg/ml peptide", "source_text": "These cells were used to compliment and confirm that the GC-17 antibody reagent specifically detected ERβ but not ERα by immunohistochemical staining. Using the GC-17 antibody and the anti-ERα antibody (NCL-ER-6F11, Novacastra, Newcastle, UK) at the same dilutions as for tissue sections (see below), we carried out immunohistochemical studies on 10% formalin-fixed cytospins of DU145 and LNCaP cells that had been routinely processed, embedded in paraffin, sectioned at 5 μm and mounted on SuperFrost Plus™ slides (VWF Scientific, West Chester, Pa.).\nPeptide competition studies were performed at the immunohistochemical level that approximated the conditions used in the ELISA assays described above. GC-17 antibody, at a dilution of 1:6000, was incubated with the immunizing ERβ peptide at concentrations of 400 μg and 40 μg at room temperature for 1 hour. In addition, competitive studies were conducted using ERα recombinant peptide (400 and 40 μg, Affinity Bioreagents Inc., Golden, Colo.) on DU145 cells. Incubation conditions and time were identical to those used for the ERβ peptide competition studies. Deparaffinized sections of DU145 and LNCaP cells and human prostate tissue were then incubated with these mixtures at room temperature for 1 hour. […]"}, "recombinant ERβ protein": {"system": "recombinant ERβ protein", "assay": "Competitive inhibition ELISA of GC-17 antibody", "assay_type": "binding, human", "conditions": "peptide pre-incubated with GC-17 (1:6000); ERβC 4 mg-4 μg/ml, ERβN 4 mg/ml", "description": "FIG. 5 is a graphic representation of the results of a competitive ELISA assay and illustrates the concentration-dependent competition of the immunizing peptide (ERβC) with a GC-17 antibody. […] The GC-17 antibodies, bound to recombinant ER-β protein on ELISA plates, were recognized by alkaline phosphatase conjugated anti-rabbit IgG antibodies. The whole complexes were visualized by incubation with p-nitrophenyl phosphate. The optical density at 405 nm was measured. The entire assay was done 4 times. The columns represent the standard deviation. w/o=GC-17 preincubated without peptide antigen.\nThe wells of an ELISA plate, PRO-BIND™ (Becton-Dickenson Labware, Franklin, N.J.) were coated with a recombinant protein composed of the entire ERβ sequence (PanVera, Madison, Wis.) at a concentration of 5 μg/ml. The GC17 antibody (1:6000) was then pre-incubated with the immunizing peptide at concentrations ranging from 4 mg-4 μg/ml at room temperature for 30 minutes. In addition, 4 mg of a control peptide encompassing sequences in the N-terminal region of ER-β (Research Genetics) was preincubated with the GC 17 antibody (1:6000) at room temperature for 1 hour. […] Results were quantified by optical density using the Microplate reader 550 (Bio-Rad, Richmond, Calif.). […]"}}, "note": "Where no end group is shown, it is not given here."}
{"compound": "Oc1ccc(C=Cc2cc(O)cc(O)c2)cc1", "note": "[Resveratrol]", "values": [{"measurement": "inhibition of cell growth", "setting": "PC-3 M cells", "value": "marked inhibition of cell growth"}, {"measurement": "inhibition of cell growth", "setting": "DU145", "value": "marked inhibition of cell growth"}]}
{"compound": "CC/C(=C(\\c1ccccc1)c1ccc(OCCN(C)C)cc1)c1ccc(O)cc1", "note": "[4OH-TAM, 4′-hydroxytamoxifen]", "values": [{"measurement": "reduction in the cell numbers", "setting": "DU145 cells [1]", "value": "around 25%"}]}
{"compound": "CC/C(=C(/CC)c1ccc(O)cc1)c1ccc(O)cc1", "note": "[DES, diethylstilbestrol]", "values": [{"measurement": "effect on cell growth", "setting": "DU145 cells [1]", "value": "did not affect cell growth"}, {"measurement": "effect on cell growth", "setting": "PC-3 cells; various concentrations", "value": "did not elicit statistically significant cell growth inhibition"}]}
{"compound": "C[C@]12CC[C@@H]3c4ccc(O)cc4C[C@@H](CCCCCCCCC[S+]([O-])CCCC(F)(F)C(F)(F)F)[C@H]3[C@@H]1CC[C@@H]2O", "note": "(stereo partly drawn) [ICI 182,780]", "values": [{"measurement": "Fold difference relative to control", "setting": "DU145 cells [2]; gene: 5-hydroxytryptamine A1 receptor (E4h)", "value": "+6.6"}, {"measurement": "Fold difference relative to control", "setting": "DU145 cells [2]; gene: BCL-2 related A1 protein (BFL-1)(C4H)", "value": "+9.6"}, {"measurement": "Fold difference relative to control", "setting": "DU145 cells [2]; gene: Embryonic growth/differentiation factor (GDF-1)", "value": "+4.5"}, {"measurement": "Fold difference relative to control", "setting": "DU145 cells [2]; gene: IFN-α/β receptor", "value": "+2.7"}, {"measurement": "Fold difference relative to control", "setting": "DU145 cells [2]; gene: Interleukin-12 alpha chain (IL-12)(F6K)", "value": "+10.6"}, {"measurement": "Fold difference relative to control", "setting": "DU145 cells [2]; gene: RYK receptor-like tyrosine kinase (E2c)", "value": "+3.6"}, {"measurement": "Fold difference relative to control", "setting": "DU145 cells [2]; gene: TL1309", "value": "+2.7"}, {"measurement": "reduction in the cell numbers", "setting": "DU145 cells [1]", "value": 40, "unit": "%"}, {"measurement": "effect on cell growth", "setting": "DU145 cells [1]", "value": "dose-dependent inhibition of cell numbers"}, {"measurement": "reduction in cell number", "setting": "DU145 cells [3]", "value": 40, "unit": "%"}]}
{"compound": "ERβC: immunizing peptide, C-terminus of ERβ (amino acids 449-465), 4-branch Multiple Antigenic Peptide (QQQSMRLANLLMLLSHV; also: 4-branch Multiple Antigenic Peptide)", "values": [{"measurement": "effect on nuclear staining by GC-17", "setting": "ERβ", "value": "totally abolished nuclear staining"}, {"measurement": "suppression of GC-17 binding to the recombinant protein", "setting": "recombinant ERβ protein", "value": "successfully suppressed binding"}]}
{"compound": "O=C(c1ccc(OCCN2CCCCC2)cc1)c1c(-c2ccc(O)cc2)sc2cc(O)ccc12", "note": "[Raloxifene]", "values": [{"measurement": "efficacy compared", "setting": "PC-3 M cells", "value": "markedly better than that of Resveratrol and ICI"}, {"measurement": "inhibition of cell growth", "setting": "PC-3 M cells", "value": "marked inhibition of cell growth"}, {"measurement": "efficacy compared", "setting": "DU145", "value": "markedly better than that of Resveratrol and ICI"}, {"measurement": "inhibition of cell growth", "setting": "DU145", "value": "marked inhibition of cell growth"}]}
{"compound": "C[C@]12CC[C@@H]3c4ccc(O)cc4CC[C@H]3[C@@H]1CC[C@@H]2O", "note": "[E2, estradiol-17β]", "values": [{"measurement": "effect on cell growth", "setting": "DU145 cells [1]", "value": "did not affect cell growth"}, {"measurement": "effect on cell growth", "setting": "PC-3 cells; 1 μM, p<0.05", "value": "induced inhibition of cell growth"}, {"measurement": "effect on cell growth", "setting": "PC-3 cells; 10 μM, p<0.01", "value": "induced inhibition of cell growth"}]}
